Measurements from patent US20230233569A1 (Revolution Medicines, Inc., priority 2020, published 2023).
pIC50: −log10 of the molar value. Where two headings read alike, the source gives them in different places.

Legend:
Assay in all cases: Ras-Raf disruption / FRET / MOA assay (BRAF RBD)
Type in all cases: biochemical
[1] = biological target: NRAS G12C (Homo sapiens, UniProt P01111+P62937, G12C)
Procedure, shortened: (§1)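 Compound-induced Ras–Cyclophilin A ternary complex disrupting BRAF RBD binding, read as IC50 from reduced TR-FRET ratio relative to DMSO. Final: Ras-GMPPNP 12.5 nM, BRAF RBD 50 nM, Cyclophilin A 25 μM, top compound 30 μM (3-fold, 10 points); 3 h at 25 °C, then 1.5 h with detection antibodies.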

[2] = biological target: KRAS G12S (Homo sapiens, UniProt P01116+P62937, G12S); conditions: with Cyclophilin A
Sequence of KRAS G12S (P01116 1-169 isoform P01116-2 G12S limits assumed): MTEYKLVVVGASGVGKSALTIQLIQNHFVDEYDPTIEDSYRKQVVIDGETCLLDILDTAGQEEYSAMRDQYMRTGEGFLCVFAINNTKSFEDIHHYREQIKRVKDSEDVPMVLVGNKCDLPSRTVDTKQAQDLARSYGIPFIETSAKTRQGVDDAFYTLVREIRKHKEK
Sequence of KRAS G12S (P62937 whole entry): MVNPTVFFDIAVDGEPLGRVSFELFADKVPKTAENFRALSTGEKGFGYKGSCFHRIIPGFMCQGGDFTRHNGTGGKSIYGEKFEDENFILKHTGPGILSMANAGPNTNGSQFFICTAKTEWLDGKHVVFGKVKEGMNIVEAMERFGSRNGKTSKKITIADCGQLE
Procedure, shortened: as §1

[3] = biological target: KRAS G13C (Homo sapiens, UniProt P01116+P62937, G13C); conditions: with Cyclophilin A
Sequence of KRAS G13C (P01116 1-169 isoform P01116-2 G13C limits assumed): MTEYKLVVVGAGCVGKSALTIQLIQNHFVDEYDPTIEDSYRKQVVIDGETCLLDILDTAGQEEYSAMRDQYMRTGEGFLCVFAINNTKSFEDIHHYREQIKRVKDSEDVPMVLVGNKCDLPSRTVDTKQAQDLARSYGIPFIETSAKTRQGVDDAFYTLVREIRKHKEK
Sequence of KRAS G13C (P62937 whole entry): as the sequence (P62937 whole entry) above
Procedure, shortened: as §1

[4] = biological target: KRAS WT (Homo sapiens, UniProt P01116+P62937); conditions: with Cyclophilin A
Sequence of KRAS WT (P01116 1-169 isoform P01116-2 limits assumed): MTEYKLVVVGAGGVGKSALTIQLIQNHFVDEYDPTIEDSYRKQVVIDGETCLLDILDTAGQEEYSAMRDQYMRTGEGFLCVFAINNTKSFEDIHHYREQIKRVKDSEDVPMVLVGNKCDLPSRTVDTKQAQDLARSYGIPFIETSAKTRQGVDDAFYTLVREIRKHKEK
Sequence of KRAS WT (P62937 whole entry): as the sequence (P62937 whole entry) above
Procedure, shortened: as §1

[5] = biological target: KRAS G12V (Homo sapiens, UniProt P01116+P62937, G12V); conditions: with Cyclophilin A
Sequence of KRAS G12V (P01116 1-169 isoform P01116-2 G12V limits assumed): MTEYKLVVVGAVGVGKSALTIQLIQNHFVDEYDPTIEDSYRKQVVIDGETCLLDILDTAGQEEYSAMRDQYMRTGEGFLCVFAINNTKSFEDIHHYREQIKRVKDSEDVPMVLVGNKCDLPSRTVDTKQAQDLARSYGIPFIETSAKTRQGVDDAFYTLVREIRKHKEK
Sequence of KRAS G12V (P62937 whole entry): as the sequence (P62937 whole entry) above
Procedure, shortened: as §1

[6] = biological target: NRAS WT (Homo sapiens, UniProt P01111+P62937)
Sequence of NRAS WT (P01111 whole entry): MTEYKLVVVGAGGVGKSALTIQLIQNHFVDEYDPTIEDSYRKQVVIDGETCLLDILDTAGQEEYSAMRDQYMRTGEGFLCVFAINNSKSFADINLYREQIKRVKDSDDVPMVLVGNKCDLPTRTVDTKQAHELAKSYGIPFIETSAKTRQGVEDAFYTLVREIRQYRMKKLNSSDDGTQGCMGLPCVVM
Sequence of NRAS WT (P62937 whole entry): as the sequence (P62937 whole entry) above
Procedure, shortened: as §1

[7] = biological target: KRAS G13D (Homo sapiens, UniProt P01116+P62937, G13D); conditions: with Cyclophilin A
Sequence of KRAS G13D (P01116 1-169 isoform P01116-2 G13D limits assumed): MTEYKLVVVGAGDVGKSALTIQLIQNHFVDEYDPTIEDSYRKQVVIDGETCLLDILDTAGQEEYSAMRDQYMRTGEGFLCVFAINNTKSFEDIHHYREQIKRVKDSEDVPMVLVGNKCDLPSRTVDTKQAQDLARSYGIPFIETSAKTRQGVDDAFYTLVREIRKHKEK
Sequence of KRAS G13D (P62937 whole entry): as the sequence (P62937 whole entry) above
Procedure, shortened: as §1

[8] = biological target: NRAS Q61R (Homo sapiens, UniProt P01111+P62937, Q61R)
Sequence of NRAS Q61R (P01111 whole entry Q61R): as the sequence (P01111 whole entry) above, with Q61R counted along it
Sequence of NRAS Q61R (P62937 whole entry): as the sequence (P62937 whole entry) above
Procedure, shortened: as §1

[9] = biological target: KRAS Q61H (Homo sapiens, UniProt P01116+P62937, Q61H)
Sequence of KRAS Q61H (P01116 1-169 isoform P01116-2 Q61H limits assumed): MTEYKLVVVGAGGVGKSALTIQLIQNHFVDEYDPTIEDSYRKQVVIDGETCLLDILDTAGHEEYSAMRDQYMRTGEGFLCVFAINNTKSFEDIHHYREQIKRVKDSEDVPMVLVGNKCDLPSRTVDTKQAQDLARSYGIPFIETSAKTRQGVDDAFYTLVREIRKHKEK
Sequence of KRAS Q61H (P62937 whole entry): as the sequence (P62937 whole entry) above
Procedure, shortened: as §1

[10] = biological target: NRAS Q61K (Homo sapiens, UniProt P01111+P62937, Q61K)
Sequence of NRAS Q61K (P01111 whole entry Q61K): as the sequence (P01111 whole entry) above, with Q61K counted along it
Sequence of NRAS Q61K (P62937 whole entry): as the sequence (P62937 whole entry) above
Procedure, shortened: as §1

[11] = biological target: KRAS G12D (Homo sapiens, UniProt P01116+P62937, G12D); conditions: with Cyclophilin A
Sequence of KRAS G12D (P01116 1-169 isoform P01116-2 G12D limits assumed): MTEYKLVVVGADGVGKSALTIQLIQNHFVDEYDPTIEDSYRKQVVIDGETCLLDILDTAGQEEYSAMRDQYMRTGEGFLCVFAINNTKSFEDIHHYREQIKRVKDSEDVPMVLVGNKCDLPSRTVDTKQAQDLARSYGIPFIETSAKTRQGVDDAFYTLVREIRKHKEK
Sequence of KRAS G12D (P62937 whole entry): as the sequence (P62937 whole entry) above
Procedure, shortened: as §1

[12] = biological target: KRAS G12C (Homo sapiens, UniProt P01116+P62937, G12C); conditions: with Cyclophilin A
Sequence of KRAS G12C (P01116 1-169 isoform P01116-2 G12C limits assumed): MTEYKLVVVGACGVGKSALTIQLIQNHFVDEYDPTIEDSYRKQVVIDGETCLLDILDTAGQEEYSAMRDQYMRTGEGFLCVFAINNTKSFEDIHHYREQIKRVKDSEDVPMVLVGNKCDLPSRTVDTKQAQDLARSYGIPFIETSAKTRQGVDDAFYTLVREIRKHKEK
Sequence of KRAS G12C (P62937 whole entry): as the sequence (P62937 whole entry) above
Procedure, shortened: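 TR-FRET read-out after 1.5 h with anti-His Eu-W1024 (10 nM) and anti-GST APC (50 nM), following 3 h at 25 °C of compound (top 30 μM, 3-fold, 10 points) with 25 μM Cyclophilin A, 12.5 nM GMPPNP-loaded K-Ras G12C and 50 nM BRAF RBD; IC50 reported.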

[13] = NRAS G12C FRET data IC50, NRAS G12C
[14] = KRAS G12S FRET data IC50, Ras-Raf disruption
[15] = KRAS G13C FRET data IC50, Ras-Raf disruption
[16] = KRAS WT FRET data IC50, Ras-Raf disruption
[17] = KRAS G12V FRET data IC50, Ras-Raf disruption
[18] = KRAS G13D FRET data IC50, Ras-Raf disruption
[19] = KRAS G12D FRET data IC50, Ras-Raf disruption
[20] = KRAS G12C FRET data IC50, Ras-Raf disruption
[21] = NRAS G12C, read-out: NRAS G12C FRET data IC50
[22] = Ras-Raf disruption, read-out: KRAS G12S FRET data IC50
[23] = Ras-Raf disruption, read-out: KRAS G13C FRET data IC50
[24] = Ras-Raf disruption, read-out: KRAS WT FRET data IC50
[25] = Ras-Raf disruption, read-out: KRAS G12V FRET data IC50
[26] = NRAS WT, read-out: NRAS WT FRET data IC50
[27] = Ras-Raf disruption, read-out: KRAS G13D FRET data IC50
[28] = NRAS Q61R, read-out: NRAS Q61R FRET data IC50
[29] = KRAS Q61H, read-out: KRAS Q61H FRET data IC50
[30] = NRAS Q61K, read-out: NRAS Q61K FRET data IC50
[31] = Ras-Raf disruption, read-out: KRAS G12D FRET data IC50
[32] = Ras-Raf disruption, read-out: KRAS G12C FRET data IC50

Sequence of NRAS G12C (P01111 whole entry G12C): as the sequence (P01111 whole entry) above, with G12C counted along it
Sequence of NRAS G12C (P62937 whole entry): as the sequence (P62937 whole entry) above

Row | SMILES | pIC50 [1, 13] | pIC50 [2, 14] | pIC50 [3, 15] | pIC50 [4, 16] | pIC50 [5, 17] | pIC50 [6] | pIC50 [7, 18] | pIC50 [8] | pIC50 [9] | pIC50 [10] | pIC50 [11, 19] | pIC50 [12, 20] | pIC50 [1, 21] | pIC50 [2, 22] | pIC50 [3, 23] | pIC50 [4, 24] | pIC50 [5, 25] | pIC50 [6, 26] | pIC50 [7, 27] | pIC50 [8, 28] | further results
1 | CCn1c(-c2cccnc2[C@H](C)OC)c2c3cc(ccc31)-c1cc(O)cc(c1)C[C@H](NC(=O)[C@H](C(C)C)N(C)C(=O)C13CC(CN1C(=O)[C@H]1CN1)C3)C(=O)N1CCC[C@H](N1)C(=O)OCC(C)(C)C2 [Example 164] | 6.00 to 7.00 | 6.00 to 7.00 | 6.00 to 7.00 | 6.00 to 7.00 | 6.00 to 7.00 | 6.00 to 7.00 | 6.00 to 7.00 | 5.00 to 6.00 | 7.00 to 8.00 | 5.00 to 6.00 | 6.00 to 7.00 | 6.00 to 7.00 |  |  |  |  |  |  |  |  | 
2 | CCn1c(-c2cccnc2[C@H](C)OC)c2c3cc(ccc31)-c1cc(O)cc(c1)C[C@H](NC(=O)[C@H](C(C)C)N(C)C(=O)[C@H]1CCCN(C(=O)[C@H]3CN3)C1)C(=O)N1CCC[C@H](N1)C(=O)OCC(C)(C)C2 [Example 165] |  |  |  |  |  |  |  |  |  |  |  |  | > 8.00 | 6.00 to 7.00 | 6.00 to 7.00 | 6.00 to 7.00 | 7.00 to 8.00 | 6.00 to 7.00 | 6.00 to 7.00 | 5.00 to 6.00 | pIC50 [9, 29]: 6.00 to 7.00; pIC50 [10, 30]: 5.00 to 6.00; pIC50 [11, 31]: 6.00 to 7.00; pIC50 [12, 32]: > 8.00
3 | CCn1c(-c2cccnc2[C@H](C)OC)c2c3cc(ccc31)-c1cc(O)cc(c1)C[C@H](NC(=O)[C@H](C(C)C)N(C)C(=O)[C@H]1C[C@H](NC(=O)[C@@H]3CN3)C1)C(=O)N1CCC[C@H](N1)C(=O)OCC(C)(C)C2 [Example 167] |  |  |  |  |  |  |  |  |  |  |  |  | > 8.00 | 7.00 to 8.00 | 7.00 to 8.00 | 7.00 to 8.00 | 7.00 to 8.00 | 7.00 to 8.00 | 7.00 to 8.00 | 6.00 to 7.00 | pIC50 [9, 29]: 7.00 to 8.00; pIC50 [10, 30]: 7.00 to 8.00; pIC50 [11, 31]: 7.00 to 8.00; pIC50 [12, 32]: > 8.00
4 | CCn1c(-c2cccnc2[C@H](C)OC)c2c3cc(ccc31)-c1cc(O)cc(c1)C[C@H](NC(=O)[C@H](C1CCCC1)N(C)C(=O)CN(C)C(=O)[C@@H]1N[C@@H]1C1CC1)C(=O)N1CCC[C@H](N1)C(=O)OCC(C)(C)C2 [Example 170] | 7.00 to 8.00 | 7.00 to 8.00 | 7.00 to 8.00 | 7.00 to 8.00 | 7.00 to 8.00 | 7.00 to 8.00 | 7.00 to 8.00 | 7.00 to 8.00 | 7.00 to 8.00 | 7.00 to 8.00 | 7.00 to 8.00 | 7.00 to 8.00 |  |  |  |  |  |  |  |  | 
5 | CCn1c(-c2cccnc2[C@H](C)OC)c2c3cc(ccc31)-c1cc(O)cc(c1)C[C@H](NC(=O)[C@H](C(C)C)N(C)C(=O)C13CCC(CC1)N3C(=O)[C@H]1CN1)C(=O)N1CCC[C@H](N1)C(=O)OCC(C)(C)C2 [Example 202] | 7.00 to 8.00 | 6.00 to 7.00 | 6.00 to 7.00 | 6.00 to 7.00 | 6.00 to 7.00 | 6.00 to 7.00 | 6.00 to 7.00 | 6.00 to 7.00 | 7.00 to 8.00 | 6.00 to 7.00 | 6.00 to 7.00 | 7.00 to 8.00 |  |  |  |  |  |  |  |  | 
6 | CCn1c(-c2cccnc2[C@H](C)OC)c2c3cc(ccc31)-c1csc(n1)C[C@H](NC(=O)[C@H](C1CCCC1)N(C)C(=O)CN(C)C(=O)[C@@H]1N[C@@H]1C1CC1)C(=O)N1CCC[C@H](N1)C(=O)OCC(C)(C)C2 [Example 210] | 6.00 to 7.00 | 5.00 to 6.00 | 5.00 to 6.00 | 5.00 to 6.00 | 5.00 to 6.00 | 5.00 to 6.00 | 5.00 to 6.00 | 5.00 to 6.00 | 6.00 to 7.00 | 5.00 to 6.00 | 5.00 to 6.00 | 6.00 to 7.00 |  |  |  |  |  |  |  |  | 
7 | CCn1c(-c2cccnc2[C@H](C)OC)c2c3cc(ccc31)-c1cc(O)cc(c1)C[C@H](NC(=O)[C@H](C(C)C)N1CC[C@H](NC(=O)[C@H]3CN3)C1=O)C(=O)N1CCC[C@H](N1)C(=O)OCC(C)(C)C2 [Example 213] | 7.00 to 8.00 | 6.00 to 7.00 | 7.00 to 8.00 | 7.00 to 8.00 | 6.00 to 7.00 | 7.00 to 8.00 | 6.00 to 7.00 | 6.00 to 7.00 | 7.00 to 8.00 | 6.00 to 7.00 | 5.00 to 6.00 | 7.00 to 8.00 |  |  |  |  |  |  |  |  | 
8 | CCn1c(-c2cccnc2[C@H](C)OC)c2c3cc(ccc31)-c1csc(n1)C[C@H](NC(=O)[C@H](C(C)C)N(C)C(=O)N(C)C1CN(C(=O)[C@H]3CN3)C1)C(=O)N1CCC[C@H](N1)C(=O)OCC(C)(C)C2 [Example 220] |  |  |  |  |  |  |  |  |  |  |  |  | 6.00 to 7.00 | 6.00 to 7.00 | 6.00 to 7.00 | 6.00 to 7.00 | 6.00 to 7.00 | 6.00 to 7.00 | 6.00 to 7.00 | 6.00 to 7.00 | pIC50 [9, 29]: 7.00 to 8.00; pIC50 [10, 30]: 7.00 to 8.00; pIC50 [11, 31]: 5.00 to 6.00; pIC50 [12, 32]: 7.00 to 8.00
9 | CCn1c(-c2cccnc2[C@H](C)OC)c2c3cc(ccc31)-c1csc(n1)C[C@H](NC(=O)[C@H](C(C)C)N(C)C(=O)N(C)C1CN(C(=O)[C@@H]3CN3)C1)C(=O)N1CCC[C@H](N1)C(=O)OCC(C)(C)C2 [Example 221] |  |  |  |  |  |  |  |  |  |  |  |  | 6.00 to 7.00 | 6.00 to 7.00 | 6.00 to 7.00 | 6.00 to 7.00 | 6.00 to 7.00 | 6.00 to 7.00 | 6.00 to 7.00 | 6.00 to 7.00 | pIC50 [9, 29]: 6.00 to 7.00; pIC50 [10, 30]: 6.00 to 7.00; pIC50 [11, 31]: 5.00 to 6.00; pIC50 [12, 32]: 6.00 to 7.00
10 | CCn1c(-c2cc(C3CCN(C)CC3)cnc2[C@H](C)OC)c2c3cc(ccc31)-c1cc(O)cc(c1)C[C@H](NC(=O)[C@H](C1CCCC1)N(C)C(=O)CN(C)C(=O)[C@H]1CN1)C(=O)N1CCC[C@H](N1)C(=O)OCC(C)(C)C2 [Example 230] | > 8.00 | 7.00 to 8.00 | > 8.00 | 7.00 to 8.00 | 7.00 to 8.00 | 7.00 to 8.00 | 7.00 to 8.00 | 7.00 to 8.00 | > 8.00 | 6.00 to 7.00 | 7.00 to 8.00 | > 8.00 |  |  |  |  |  |  |  |  | 
